In the assay the target is T1, Glucocorticoid Receptor (Homo sapiens, UniProt P04150).
T1 construct: expressed in transfected cells
T1 sequence (P04150 524-758 limits assumed): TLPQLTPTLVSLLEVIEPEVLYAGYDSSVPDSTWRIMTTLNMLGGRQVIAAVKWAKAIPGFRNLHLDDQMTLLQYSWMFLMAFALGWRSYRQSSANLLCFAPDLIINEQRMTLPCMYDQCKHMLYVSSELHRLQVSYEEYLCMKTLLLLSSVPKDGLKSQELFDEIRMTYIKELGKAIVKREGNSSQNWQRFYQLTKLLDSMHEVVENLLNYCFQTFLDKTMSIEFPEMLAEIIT
The assay is described as follows: Agonistic mode of action on the glucocorticoid receptor (CHO-Gal4/GR luciferase reporter cell line). As to conditions: CHO-Gal4/GR luciferase reporter cells; observed in the agonistic assay or the antagonistic assay (mode not given); read-out: IC50 or EC50 range. Type of assay: cell-based. A digest of the protocol:
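CHO cells stably expressing GAL4 DBD–GR ligand-binding domain fusion with GAL4-UAS firefly luciferase reporter, seeded 24 h, then treated in Opti-MEM with 8 half-log concentrations from 10 μM to 0.003 μM (0.5% DMSO), quadruplicate. Luminescence read on FLIPR after lysis with Triton/luciferin; EC50 calculated.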

The structures appear in SMILES notation.

Regarding `COc1c(-c2cc(F)cc3c2cnn3S(C)(=O)=O)c(F)c(F)c2c1-n1c(C)nnc1C(C)(C)N2` [Example 501, 6,7-Difluoro-8-(6-fluoro-1-methylsulfonyl-1H-indazol-4-yl)-9-methoxy-1,4,4-trimethyl-5H-[1,2,4]triazolo[4,3-a]quinoxaline], the IC50 or EC50 (antagonist or agonist mode, not stated per compound) is 100 to 1000 nM.

With `COc1cc(-c2cc(F)c3c(c2C)-n2c(C)nnc2C(C)(C)N3)c2ccn(S(C)(=O)=O)c2c1` [Example 523, 6-Fluoro-8-(6-methoxy-1-methylsulfonyl-1H-indol-4-yl)-1,4,4,9-tetramethyl-5H-[1,2,4]triazolo[4,3-a]quinoxaline], the IC50 or EC50 (antagonist or agonist mode, not stated per compound) is 100 to 1000 nM.

As to `COc1c(-c2cc(C(F)(F)F)cc3c2ccn3S(C)(=O)=O)cc(F)c2c1-n1c(C)nnc1C(C)(C)N2` [Example 492, 6-Fluoro-9-methoxy-1,4,4-trimethyl-8-[1-methylsulfonyl-6-(trifluoromethyl)-1H-indol-4-yl]-5H-[1,2,4]triazolo[4,3-a]quinoxaline], the IC50 or EC50 (antagonist or agonist mode, not stated per compound) was 100 to 1000 nM.

As to `Cc1c(-c2cc(F)cc3c2cnn3S(C)(=O)=O)c(F)c(Cl)c2c1-n1c(C)nnc1C(C)(C)N2` [Example 510, 6-Chloro-7-fluoro-8-(6-fluoro-1-methylsulfonyl-1H-indazol-4-yl)-1,4,4,9-tetramethyl-5H-[1,2,4]triazolo[4,3-a]quinoxaline], the IC50 or EC50 (antagonist or agonist mode, not stated per compound) is below 100 nM.

On to `Cc1c(-c2cc(F)cc3c(C)c[nH]c23)cc(F)c2c1-n1c(C3CC3)nnc1C(C)(C)N2` [Example 66, 1-Cyclopropyl-6-fluoro-8-(5-fluoro-3-methyl-1H-indol-7-yl)-4,4,9-trimethyl-5H-[1,2,4]triazolo[4,3-a]quinoxaline], for which the IC50 or EC50 (antagonist or agonist mode, not stated per compound) lay within 100 to 1000 nM.

With `COc1c(-c2cc(F)cc3cc[nH]c23)cc(F)c2c1-n1c(C)nnc1C(C)(C)N2` [Example 515, 6-Fluoro-8-(5-fluoro-1H-indol-7-yl)-9-methoxy-1,4,4-trimethyl-5H-[1,2,4]triazolo[4,3-a]quinoxaline], the IC50 or EC50 (antagonist or agonist mode, not stated per compound) is 100 to 1000 nM.

For `Cc1c(-c2cc(F)cc3c(C)c[nH]c23)c(Cl)c(F)c2c1-n1c(C)nnc1C(C)(C)N2` [Example 526, 7-Chloro-6-fluoro-8-(5-fluoro-3-methyl-1H-indol-7-yl)-1,4,4,9-tetramethyl-5H-[1,2,4]triazolo[4,3-a]quinoxaline], the IC50 or EC50 (antagonist or agonist mode, not stated per compound) is below 100 nM.

For `Cc1c(-c2cccc3c2cnn3S(C)(=O)=O)cc(F)c2c1-n1c(C)nnc1C(C)(C)N2` [Example 378, 6-Fluoro-1,4,4,9-tetramethyl-8-(1-methylsulfonyl-1H-indazol-4-yl)-5H-[1,2,4]triazolo[4,3-a]quinoxaline], the IC50 or EC50 (antagonist or agonist mode, not stated per compound) was in the range of 1000 to 15000 nM.

Consider `Cc1c(-c2cc(F)cc3c(C4CC4)c[nH]c23)cc(F)c2c1-n1c(C)nnc1C(C)(C)N2` [Example 38, 8-(3-cyclopropyl-5-fluoro-1H-indol-7-yl)-6-fluoro-1,4,4,9-tetramethyl-4,5-dihydro-1-[1,2,4]triazolo[4,3-a]quinoxaline], for which the IC50 or EC50 (antagonist or agonist mode, not stated per compound) was below 100 nM.

On to `COc1c(-c2cc(F)cc3c2ccn3S(C)(=O)=O)c(F)c(F)c2c1-n1c(C)nnc1C(C)(C)N2` [Example 498, 6,7-Difluoro-8-(6-fluoro-1-methylsulfonyl-1H-indol-4-yl)-9-methoxy-1,4,4-trimethyl-5H-[1,2,4]triazolo[4,3-a]quinoxaline], for which the IC50 or EC50 (antagonist or agonist mode, not stated per compound) is below 100 nM.

Consider `Cc1c(-c2cc(F)cc3c2ccn3C)c(F)c(F)c2c1-n1c(C)nnc1C(C)(C)N2` [Example 521, 6,7-Difluoro-8-(6-fluoro-1-methyl-1H-indol-4-yl)-1,4,4,9-tetramethyl-5H-[1,2,4]triazolo[4,3-a]quinoxaline], for which the IC50 or EC50 (antagonist or agonist mode, not stated per compound) is below 100 nM.

As for `COc1cc(-c2cc(F)c3c(c2OC)-n2c(C)nnc2C(C)(C)N3)c2ccn(S(C)(=O)=O)c2c1` [Example 524, 6-Fluoro-9-methoxy-8-(6-methoxy-1-methylsulfonyl-1H-indol-4-yl)-1,4,4-trimethyl-5H-[1,2,4]triazolo[4,3-a]quinoxaline], the IC50 or EC50 (antagonist or agonist mode, not stated per compound) lay within 100 to 1000 nM.

`Cc1c(-c2cccc3c2ccn3CC(F)F)cc(F)c2c1-n1c(C)nnc1C(C)(C)N2` [Example 326, 8-[1-(2,2-Difluoro-ethyl)-1H-indol-4-yl]-6-fluoro-1,4,4,9-tetramethyl-5H-[1,2,4]triazolo[4,3-a]quinoxaline]: the IC50 or EC50 (antagonist or agonist mode, not stated per compound) lay within 100 to 1000 nM.

Turning to `Cc1c(-c2cccc3[nH]ccc23)c(F)c(F)c2c1-n1c(C)nnc1C(C)(C)N2` [Example 512, 6,7-Difluoro-8-(1H-indol-4-yl)-1,4,4,9-tetramethyl-5H-[1,2,4]triazolo[4,3-a]quinoxaline], the IC50 or EC50 (antagonist or agonist mode, not stated per compound) was below 100 nM.

As for `CCc1nnc2n1-c1c(C)c(-c3cc(F)cc4c3ccn4S(C)(=O)=O)cc(F)c1NC2(C)C` [Example 323, 1-Ethyl-6-fluoro-8-(6-fluoro-1-methylsulfonyl-1H-indol-4-yl)-4,4,9-trimethyl-5H-[1,2,4]triazolo[4,3-a]quinoxaline], the IC50 or EC50 (antagonist or agonist mode, not stated per compound) is 100 to 1000 nM.

Regarding `Cc1c[nH]c2c(-c3cc(F)c4c(c3C(F)F)-n3c(C)nnc3C(C)(C)N4)cc(F)cc12` [Example 462, 9-(Difluoro-methyl)-6-fluoro-8-(5-fluoro-3-methyl-1H-indol-7-yl)-1,4,4-trimethyl-5H-[1,2,4]triazolo[4,3-a]quinoxaline], the IC50 or EC50 (antagonist or agonist mode, not stated per compound) is below 100 nM.

In the case of `Cc1c(-c2cc(F)cc3c2ccn3S(C)(=O)=O)c(F)c(F)c2c1-n1c(C)nnc1C(C)(C)N2` [Example 447, 6,7-Difluoro-8-(6-fluoro-1-methylsulfonyl-1H-indol-4-yl)-1,4,4,9-tetramethyl-5H-[1,2,4]triazolo[4,3-a]quinoxaline], the IC50 or EC50 (antagonist or agonist mode, not stated per compound) was below 100 nM.

In the case of `COc1c(-c2cc(F)cc3[nH]ncc23)cc(F)c2c1-n1c(C)nnc1C(C)(C)N2` [Example 495, 6-Fluoro-8-(6-fluoro-1H-indazol-4-yl)-9-methoxy-1,4,4-trimethyl-5H-[1,2,4]triazolo[4,3-a]quinoxaline], the IC50 or EC50 (antagonist or agonist mode, not stated per compound) was in the range of 100 to 1000 nM.

Take `COc1c(-c2cc(C(F)(F)F)cc3[nH]ccc23)cc(F)c2c1-n1c(C)nnc1C(C)(C)N2` [Example 473, 6-Fluoro-9-methoxy-1,4,4-trimethyl-8-[6-(trifluoromethyl)-1H-indol-4-yl]-5H-[1,2,4]triazolo[4,3-a]quinoxaline]: the IC50 or EC50 (antagonist or agonist mode, not stated per compound) was in the range of 100 to 1000 nM.

`Cc1nnc2n1-c1c(c(F)c(F)c(-c3cccc4c3ccn4S(C)(=O)=O)c1C(F)(F)F)NC2(C)C` [Example 500, 6,7-difluoro-1,4,4-trimethyl-8-(1-(methylsulfonyl)-1H-indol-4-yl)-9-(trifluoromethyl)-4,5-dihydro-[1,2,4]triazolo[4,3-a]quinoxaline]: the IC50 or EC50 (antagonist or agonist mode, not stated per compound) is 100 to 1000 nM.

For the compound `Cc1c(-c2cccc3c2cnn3S(C)(=O)=O)c(F)c(F)c2c1-n1c(C)nnc1C(C)(C)N2` [Example 451, 6,7-Difluoro-1,4,4,9-tetramethyl-8-(1-methylsulfonyl-1H-indazol-4-yl)-5H-[1,2,4]triazolo[4,3-a]quinoxaline], the IC50 or EC50 (antagonist or agonist mode, not stated per compound) is 100 to 1000 nM.

The record behind these values is patent US11981677B2, “Further substituted triazolo quinoxaline derivatives” (Grünenthal GmbH, priority 2018, dated 2024).
